Source: paper PMC11579209, “Population pharmacokinetics and exposure–response relationships of maribavir in transplant recipients with cytomegalovirus infection” (Journal of Pharmacokinetics and Pharmacodynamics, 2024)

Key:
[1] = Population pharmacokinetic (PopPK) model (NONMEM), pooled maribavir plasma concentration–time data from phase 1, 2 and 3 studies; format: in vivo, human
Method: A PopPK model was developed using non-linear mixed effects modeling (NONMEM) (v7.4.3) with pooled maribavir plasma concentration–time data from 667 participants in nine phase 1 studies (n = 182, single or repeated doses of 100, 200 or 400 mg), two phase 2 studies (NCT01611974, EudraCT 2010-024247-32, 400, 800, and 1200 mg BID), and one phase 3 study (SOLSTICE, NCT02931539, 400 mg BID; phase 2 and 3 combined: n = 485). The final PopPK analysis dataset comprised data from individuals who had received at least one dose of maribavir and had at least one quantifiable post-dose concentration. This model was used to describe the time course of maribavir plasma concentrations in healthy volunteers, participants with hepatic or renal impairment, stable renal transplant patients, and hematopoietic cell transplant (HCT) or solid organ transplant (SOT) recipients with CMV infection, including those with refractory CMV infection.
One- (ADVAN2 TRANS2), two- (ADVAN4 TRANS4), and three (ADVAN12 TRANS4)-compartment models with first-order absorption, an absorption lag time, and linear clearance were initially investigated. The NONMEM control stream for the final model can be found in the Supplementary Methods S1 of the Supplementary Material 1. […] Consequently, the effects of co-administration of strong CYP3A4 inhibitors and strong CYP3A4 inducers were considered for inclusion in the base model. The effect of body weight (scaled to 70 kg) on both clearance and volume terms was also considered for inclusion in the base model.
Structural and variance model parameters were estimated for the base model, and inter-individual variability (IIV) was included on all structural parameters. Runs with untransformed data were used to test the residual error models. Plots of weighted residuals were evaluated for homoscedasticity with respect to predictions and time since dose, and the structure of the base model was expanded as necessary to best reflect the characteristic shape of the observations over time. Dose and time dependency were explored for PK model parameters. Parameter estimation was performed using Monte Carlo Importance Sampling Expectation Maximization assisted by Mode a Posteriori, with MU referencing (where THETAs that define typical values of individual parameters, and are associated with random effects, are referenced in a PHI/MU format) to improve the efficiency of computations. The impact of post-dose observations below the lower limit of quantification (BLQ) was assessed in initial models by implementing the M3 method, which maximizes the likelihood for all the data treating BLQ observations as censored. The performance of the final PopPK model was evaluated using a confidence interval prediction-corrected visual predictive check (CI-pcVPC) method. In addition, the percentage of observations outside the overall 5th and 95th percentiles of the predicted data was calculated.
Strong CYP3A4 inhibitors and inducers, as well as weight, were included in the base model.
Continuous covariates were obtained from observations on the first day of dosing, or at screening if this value was not available. […] Categorical covariates were tested and incorporated in the model as a series of index variables taking on values of zero or one.
The full model with backwards deletion approach was used for covariate modeling, with all covariate parameter relationships of interest entered into the model simultaneously. Highly correlated covariates were tested one at a time to avoid confounding in the estimation of covariate effects. A backwards deletion was carried out at the p = 0.001 significance level. The order of removal was based on the relative standard error and 95% confidence interval (CI) of the parameter estimate.

[2] = system: Cytochrome P450 (CYP) 3A4; design: method as in PMID 12654667, doi:10.1016/j.bbmt.2018.12.600; conditions: formation of VP44469; cited from earlier work
CMV = conditions: SOLSTICE, maribavir 400 mg BID vs IAT, cited from earlier work
[3] = design: species or system human; conditions: in vivo
Method: The exposure–response analyses for maribavir were based on data collected from transplant recipients with CMV infections that were refractory to treatment with ganciclovir, valganciclovir, foscarnet, or cidofovir in the phase 3 SOLSTICE study (ClinicalTrials.gov: NCT02931539). SOLSTICE was a multicenter, open-label, active-controlled study in which patients were randomized 2:1 to receive maribavir 400 mg BID or IAT for 8 weeks, with 12 weeks of follow-up. The primary endpoint was confirmed CMV clearance at the end of week 8, and the key secondary endpoint was achievement of CMV clearance and symptom control at the end of week 8, maintained through week 16. TE CMV mutation conferring resistance to maribavir was assessed as an exploratory endpoint. Full details of the SOLSTICE study have been published previously.
Posterior Bayes parameters of the final PopPK model were used to derive rich concentration–time profiles for maribavir. Actual dosing history and factors affecting the PK of maribavir (i.e., body weight and time-varying presence of strong CYP3A4 inhibitors or strong CYP3A4 inducers) were considered in the predictions.
Data set preparation, exploration, visualization of the data and exposure-response analyses were performed using R® (version 4.0.5 for efficacy and resistance analyses; version 4.0.2 for safety analysis) with comprehensive R® archive network (CRAN) and Certara Strategic Consulting (CSC) package. Firth correction on logistic regression was done based on library “logistf”. Logistic regressions with log-linear exposure effect or Emax exposure effect were performed using NONMEM Version VII (version 7.4).
Descriptive statistics were derived for TEAEs, TE serious AEs (SAEs), and TEAEs of special interest during the 8-week treatment phase. Based on the descriptive statistics results, key TEAEs were selected for a formal exposure–response analysis, and exposure parameters of maribavir (AUCday, Cmax.day, Cavg, AUCss, and Cmax.ss) derived from the final PopPK models were merged with retained TEAE. […]

[4] = design: method as in PMID 38009271; conditions: concurrent rifampin; cited from earlier work
[5] = reference: 70-kg individual without CMV, 800 mg

## CC(C)Nc1nc2cc(Cl)c(Cl)cc2n1[C@H]1O[C@@H](CO)[C@H](O)[C@@H]1O [maribavir]
[1]; final PopPK model
  CL/F higher in the presence of strong CYP3A4 inducers: 2.24 fold
  CL/F lower in the presence of strong CYP3A4 inhibitors: 30%
  CL/F ~ CYP3A strong inducers, covariate estimate: 2.24
  CL/F ~ CYP3A strong inhibitors, covariate estimate: 0.700
  CL/F ~ transplant patients with CMV, covariate estimate: 0.756
[1]; human, in vivo
  CL/F lower for transplant recipients with CMV infection than for all other individuals: 24%
[1]; [5]
  Ka (first-order absorption), PopPK estimate: 0.336 h^–1
  Lag-time, PopPK estimate: 0.271 h
  Q/F (inter-compartment clearance), PopPK estimate: 0.908 L/h
  Vc/F (apparent volume of central compartment), PopPK estimate: 18.6 L
  Vp/F (apparent volume of peripheral compartment), PopPK estimate: 8.66 L
[1]; reference: 70-kg individual without CMV, 800 mg maribavir, no CYP3A strong inhibitors or inducers
  CL/F (apparent total clearance), PopPK estimate: 3.77 L/h
[2]
  Share of CYP-mediated metabolism by CYP3A4: 70–85%
CMV
  Proportion of patients achieving key secondary endpoint (CMV viremia clearance and symptom control at end of week 8, maintained through week 16): 18.7%
CMV; transplant recipients with refractory CMV
  Proportion of patients achieving primary endpoint (confirmed CMV viremia clearance at week 8): 55.7%
[3]; human
  Relationship between probability of TE SAE and maribavir AUCday, AUCss, Cmax.ss, and Cavg: Statistically significant positive relationships
[3]
  Relationship between probability of fatigue and maribavir exposure PK metrics: Statistically significant positive relationships
  Relationship between probability of taste disturbance and Cavg of maribavir: statistically significant negative relationship
[4]
  Increase in maribavir clearance: 2.5 fold
  Reduction in maribavir AUC: 60%
  Reduction in maribavir half-life: 30%
